The text below walks through data of ChEMBL document CHEMBL1133355, “Pyrrolo[3,2,1-ij]quinoline derivatives, a 5-HT2c receptor agonist with selectivity over the 5-HT2a receptor: potential therapeutic applications for epilepsy and obesity” (Bioorg Med Chem Lett, 2000).

Assay [1] addresses T1, 5-hydroxytryptamine receptor 2A (Homo sapiens, UniProt P28223). The assay can be described thus: Functional antagonist activity of compound was determined by fluorescence-based assay measuring intracellular calcium mobilization for 5-HT2a receptor cell line. A general note: Calcium assays in cells follow changes in intracellular calcium, usually with a dye or a luminescent sensor.

Assay [2] has as its target T1, 5-hydroxytryptamine receptor 2A. Briefly: Functional agonist activity of compound was determined by fluorescence-based assay measuring intracellular calcium mobilization for 5-HT2a receptor cell line.
Assay [3] addresses T2, 5-hydroxytryptamine receptor 2C (Homo sapiens, UniProt P28335).
T2 sequence (P28335 whole entry): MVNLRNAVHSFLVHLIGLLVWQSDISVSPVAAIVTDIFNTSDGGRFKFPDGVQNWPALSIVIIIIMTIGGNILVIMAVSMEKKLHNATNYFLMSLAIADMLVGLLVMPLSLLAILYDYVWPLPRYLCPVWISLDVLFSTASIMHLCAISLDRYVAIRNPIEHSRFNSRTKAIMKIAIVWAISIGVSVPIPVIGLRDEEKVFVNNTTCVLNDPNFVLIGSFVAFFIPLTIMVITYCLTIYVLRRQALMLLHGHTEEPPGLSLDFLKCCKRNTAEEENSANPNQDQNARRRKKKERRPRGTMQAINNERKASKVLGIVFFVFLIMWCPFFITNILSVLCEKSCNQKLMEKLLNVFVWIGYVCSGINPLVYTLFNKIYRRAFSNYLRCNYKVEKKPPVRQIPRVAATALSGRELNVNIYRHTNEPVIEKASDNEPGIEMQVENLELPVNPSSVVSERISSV
The assay can be described thus: In vitro binding affinity towards human 5-hydroxytryptamine 2C receptor expressed in HEK293 cells was determined using [3H]mesulergine as radioligand. The format is cell-based.

The nature of assay [4]: Binding ratio of compound to 5-HT2a to that of 5-HT2c was determined.
Assay [5] deals with T2, 5-hydroxytryptamine receptor 2C. Briefly: Functional agonist activity of compound was determined by fluorescence-based assay measuring intracellular calcium mobilization for 5-HT2c receptor cell line.
Assay [6] has as its target T1, 5-hydroxytryptamine receptor 2A. The assay can be described thus: In vitro binding affinity towards human 5-hydroxytryptamine 2A receptor expressed in HEK293 cells was determined using [3H]ketanserin as radioligand. The format is cell-based.

pEC50, pKi: −log10 of the molar value.

T1 sequence (P28223 whole entry): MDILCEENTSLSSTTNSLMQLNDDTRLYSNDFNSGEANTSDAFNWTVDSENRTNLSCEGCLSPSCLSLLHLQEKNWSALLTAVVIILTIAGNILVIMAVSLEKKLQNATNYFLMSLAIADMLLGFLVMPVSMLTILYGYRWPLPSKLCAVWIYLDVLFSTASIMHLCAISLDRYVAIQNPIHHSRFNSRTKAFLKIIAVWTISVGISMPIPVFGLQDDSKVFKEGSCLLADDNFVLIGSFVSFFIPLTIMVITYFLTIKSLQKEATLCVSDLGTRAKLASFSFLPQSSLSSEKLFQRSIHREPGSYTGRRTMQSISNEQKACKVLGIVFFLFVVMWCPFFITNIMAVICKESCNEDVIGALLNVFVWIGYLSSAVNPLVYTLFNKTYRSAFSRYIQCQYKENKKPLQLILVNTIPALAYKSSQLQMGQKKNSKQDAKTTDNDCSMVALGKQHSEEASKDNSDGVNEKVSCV

The term pEC50 denotes the negative decadic logarithm of the EC50, by convention in mol/L. By pKi is commonly meant −log10 of the Ki, conventionally taken in molar units. Read a high pKi as a low Ki. Take `CNCCc1cn2c3c(cc(F)cc13)CCC2C` (centres undefined): the pEC50 in assay [1] was 5.96; in assay [2] it was below 5.00; in assay [5], 6.74. Further, the results for the pKi in assay [3] and in assay [6] were 7.48 and 5.84, respectively. The Ratio in assay [4] turned out to be 44.

With `CC1CCc2cc(F)cc3c(CCN)cn1c23` (centres undefined), the pEC50 in assay [2] was 6.57; in assay [5], 8.24. In addition, the figures for the pKi in assay [3] and in assay [6] were 7.74 and 5.63, respectively. In addition, the Ratio in assay [4] was 130.

Regarding `NCCc1cn2c3c(cc(Cl)cc13)SCC2`, the figures for the negative logarithm of the EC50 (pEC50) in assay [2] and in assay [5] were 6.46 and 9.64, respectively. Also, the pKi in assay [3] is 7.33; in assay [6] it was 6.20. Moreover, in assay [4], the Ratio was 13.4.

Turning to `Cc1c(CCN)c2cc(F)cc3c2n1C(C)CC3` (centres undefined), the figures for the pKi in assay [3] and in assay [6] were 6.71 and 6.02, respectively. Also, in assay [4], the Ratio was 4.9. Also, the negative logarithm of the EC50 (pEC50) in assay [5] was 7.39.

As for `NCCc1cn2c3c(cccc13)CCC2`, the negative logarithm of the EC50 (pEC50) in assay [2] was 6.84; in assay [5], 9.70. Moreover, the pKi in assay [3] is 7.39; in assay [6], 6.10. In addition, the Ratio in assay [4] came to 19.4.

Take `Cc1c(CCN)c2cccc3c2n1CCC3`: the pKi in assay [3] was 6.65; in assay [6] it was 6.17. The Ratio in assay [4] was determined as 3. Besides, the pEC50 in assay [5] is 8.05.
